Patent US20250011288A1 (BRISTOL-MYERS SQUIBB COMPANY, priority 2021, published 2025)

target: T1, human RXFP1 (Homo sapiens, UniProt Q9HBX9); assay: human RXFP1 (hRXFP1) HEK293 cAMP assay (HTRF); assay type: cell-based; details: HEK293 cells stably expressing human RXFP1, 30 min at room temperature
T1 construct: expressed in transfected cells
T1 sequence (Q9HBX9 1-757): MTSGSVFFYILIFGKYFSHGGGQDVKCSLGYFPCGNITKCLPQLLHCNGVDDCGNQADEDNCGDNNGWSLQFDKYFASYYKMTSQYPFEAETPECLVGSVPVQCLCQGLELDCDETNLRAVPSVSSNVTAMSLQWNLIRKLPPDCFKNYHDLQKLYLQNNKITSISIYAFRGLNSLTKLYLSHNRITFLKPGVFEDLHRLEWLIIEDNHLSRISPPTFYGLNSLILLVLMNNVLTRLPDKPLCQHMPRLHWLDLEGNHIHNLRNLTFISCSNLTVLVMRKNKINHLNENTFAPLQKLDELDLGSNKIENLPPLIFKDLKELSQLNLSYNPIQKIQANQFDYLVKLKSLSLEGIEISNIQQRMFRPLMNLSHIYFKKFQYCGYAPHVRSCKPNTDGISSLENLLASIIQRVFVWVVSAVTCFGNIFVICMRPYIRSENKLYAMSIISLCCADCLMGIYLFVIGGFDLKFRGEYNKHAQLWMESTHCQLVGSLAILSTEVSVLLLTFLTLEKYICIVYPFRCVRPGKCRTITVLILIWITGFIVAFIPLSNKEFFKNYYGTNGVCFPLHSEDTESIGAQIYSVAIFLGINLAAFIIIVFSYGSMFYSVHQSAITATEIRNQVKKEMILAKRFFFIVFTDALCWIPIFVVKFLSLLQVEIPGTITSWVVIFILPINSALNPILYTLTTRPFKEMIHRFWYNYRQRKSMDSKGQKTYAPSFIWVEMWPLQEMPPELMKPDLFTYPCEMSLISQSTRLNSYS
Description: RXFP1 Cyclic Adenosine Monophosphate (cAMP) Assays. […] Cells were dissociated and suspended in assay buffer. The assay buffer was HBSS buffer (with calcium and magnesium) containing 20 mM HEPES, 0.05% BSA, and 0.5 mM IBMX. Cells (3000 cells per well, except 1500 cell per well for HEK293 cells stably expressing human RXFP1) were added to 384-well Proxiplates (Perkin-Elmer). Cells were immediately treated with test compounds in DMSO (2% final) at final concentrations in the range of 0.010 nM to 50 µM. Cells were incubated for 30 min at room temperature. The level of intracellular cAMP was determined using the HTRF HiRange cAMP assay reagent kit (Cisbio) according to manufacturer's instructions. Solutions of cryptate conjugated anti-cAMP and d2 fluorophore-labelled cAMP were made in a supplied lysis buffer separately. Upon completion of the reaction, the cells were lysed with equal volume of the d2-cAMP solution and anti-cAMP solution. […] The potency and activity of a compound to […] cAMP production was then determined by fitting to a 4-parametric logistic equation from a plot of cAMP level versus compound concentrations.

| EC50 | SMILES |
| --- | --- |
| 630 nM | COCCN1CCc2cc(OC)c(C(=O)N[C@H]3[C@@H](C(=O)Nc4ccc(F)c(C(F)(F)F)c4)[C@H]4CC[C@@H]3/C4=C\C3CC3)cc2C1 [Example 87, N-[(1R,2R,3S,4R)-7-(cyclopropyl-methylidene)-3-{[4-fluoro-3-(trifluoromethyl)phenyl]carbamoyl}bicyclo[2.2.1]heptan-2-yl]-6-methoxy-2-(2-methoxyethyl)-1,2,3,4-tetrahydro-isoquinoline-7-carboxamide] |
| 1.8 nM | COc1ncc(C2=NO[C@@H]3C[C@H](CO)CN23)cc1C(=O)N[C@@H]1C2CCC(/C2=C/C2CC2)[C@@H]1C(=O)N[C@H](C)C1(C)CC1 (stereo partly drawn) [Example 106, N-((1R,2R,3S,4R,Z)-7-(cyclopropyl-methylene)-3-(((R)-1-(1-methylcyclopropyl)ethyl)carbamoyl)bicyclo[2.2.1]heptan-2-yl)-5-((6S,7aR)-6-(hydroxymethyl)-5,6,7,7a-tetrahydropyrrolo [1,2-d][1,2,4]oxadiazo 1-3-yl)-2-methoxynicotinamide] |
| 3500 nM | Cn1c(=O)c(C(=O)N[C@@H]2C3CCC(/C3=C/C(F)(F)F)[C@@H]2C(=O)Nc2ccc(F)c(C(F)(F)F)c2)cc2ccccc21 (stereo partly drawn) [Example 15, N-[(2R,3S,7Z)-3-{[4-fluoro-3-(trifluoromethyl)phenyl]carbamoyl}-7-(2.2,2-trifluoroethylidene)bicyclo[2. 2.1]heptan-2-yl]-1-methyl-2-oxo-1,2-dihydroquinoline-3-carboxamide] |
| 1.2 nM | COc1ncc(-c2cc([C@H](OC(=O)NC3CC3)C(F)(F)F)ccc2F)cc1C(=O)N[C@H]1[C@@H](C(=O)Nc2ccc(F)c(C(F)(F)F)c2)[C@H]2CC[C@@H]1/C2=C\CCC(F)(F)F [Example 165, (1S)-2,2,2-trifluoro-1-[4-fluoro-3-(5-{[(1R,2R,3S,4R, 7Z)-3-{[4-fluoro-3-(trifluoromethyl)phenyl]carbamoyl}-7-(4,4,4-trifluorobutylidene)bicyclo[2.2.1]heptan-2-yl]carbamoyl}-6-methoxypyridin-3-yl)phenyl]ethyl N-cyclopropyl-carbamate] |
| 4.9 nM | COc1ncc(C2=NOC3CC(C(C)O)CC23)cc1C(=O)N[C@H]1[C@@H](C(=O)Nc2ccc(F)c(C(F)(F)F)c2)[C@H]2CC[C@@H]1/C2=C\C1CCCC1 (stereo partly drawn) [Example 128, N-((1R,2R,3S,4R,Z)-7-(cyclopentylmethylene)-3-((4-fluoro-3-(trifluoromethyl)phenyl)carbamoyl)bicyclo[2.2.1]heptan-2-yl)-5-(5-(1-hydroxyethyl)-3a,5,6,6a-tetrahydro-4H-cyclopenta[d]isoxazol-3-yl)-2-methoxynicotinamide] |
| 0.5 nM | COc1ncc(-c2cc([C@H](OC(=O)NC3CCC3)C(F)(F)F)ccc2F)cc1C(=O)N[C@H]1[C@@H](C(=O)NC(C)C2(C)CC2)[C@H]2CC[C@@H]1/C2=C\C1CC(F)(F)C1 (stereo partly drawn) [Example 148, (S)-1-(3-(5-(((1R,2R,3S,4R, Z)-7-((3,3-difluorocyclobutyl)methylene)-3-(((R)-1-(1-methylcyclopropyl)ethyl)carbamoyl)bicyclo[2.2.1]heptan-2-yl)carbamoyl)-6-methoxypyridin-3-yl)-4-fluorophenyl)-2,2,2-trifluoroethyl cyclobutylcar-bamate] |
| 5.3 nM | COc1ncc(-c2c(C)nn3c2COCC3)cc1C(=O)N[C@H]1[C@@H](C(=O)Nc2ccc(F)c(C(F)(F)F)c2)[C@H]2CC[C@@H]1/C2=C\C1CCCC1 [Example 150, N-[(1R,2R,3S,4R, 7Z)-7-(cyclopentyl-methylidene)-3-{[4-fluoro-3-(trifluoromethyl)phenyl]carbamoyl}bicyclo[2.2.1]heptan-2-yl]-2-methoxy-5-{2-methyl-4H,6H,7H-pyrazolo[3,2-c][1,4]oxazin-3-yl}pyridine-3-carboxamide] |
| 42 nM | COc1ncc(-c2cc([C@H](OC(=O)Nc3ccccc3)C(F)(F)F)ccc2F)nc1C(=O)N[C@@H]1C2CCC(/C2=C/C(F)(F)F)[C@@H]1C(=O)Nc1ccc(F)c(C(F)(F)F)c1 (stereo partly drawn) [Example 35, (1S)-2,2,2-trifluoro-1-[4-fluoro-3-(6-{[(2R,3S,7Z)-3-{[4-fluoro-3-(trifluoromethyl)phenyl]carbamoyl}-7-(2,2,2-trifluoroethylidene)bicyclo[2.2.1]heptan-2-yl]carbamoyl}-5-methoxypyrazine-2-yl)phenyl]ethyl N-phenylcarbamate] |
| 360 nM | O=C(O)c1ccc(F)c(-c2cc(C(=O)N[C@@H]3C4CCC(/C4=C/C(F)(F)F)[C@@H]3C(=O)Nc3ccc(F)c(C(F)(F)F)c3)c(OCCO)cn2)c1 (stereo partly drawn) [Example 44, 4-Fluoro-3-(4-{[(2R,3S,7Z)-3-{[4-fluoro-3-(trifluoromethyl)phenyl]carbamoyl}-7-(2,2,2-trifluoroethylidene)bicyclo[2.2.1]heptan-2-yl]carbamoyl}-5-(2-hydroxyethoxy)pyridin-2-yl)benzoic acid] |
| 1 nM | COc1ncc(-c2cc([C@H](O)C(F)(F)F)ccc2F)cc1C(=O)N[C@H]1[C@@H](C(=O)Nc2ccc(F)c(C(F)(F)F)c2)[C@H]2CC[C@@H]1/C2=C\C1CCCC1 [Example 163, N-[(1R,2R,3S,4R, 7Z)-7-(cyclopentyl-methylidene)-3-{[4-fluoro-3-(trifluoromethyl)phenyl]carbamoyl}bicyclo[2.2.1]heptan-2-yl]-5-{2-fluoro-5-[(1S)-2,2,2-trifluoro-1-hydroxyethyl]phenyl}-2-methoxypyridine-3-carboxamide] |
| 5000 nM | COc1cc(C(=O)N[C@@H]2C3CCC(C3=C(C)C)[C@@H]2C(=O)Nc2ccc(F)c(C(F)(F)F)c2)c(OC)nn1 (stereo partly drawn) [Example 4, N-[(2R,3S)-3-{[4-fluoro-3-(trifluoromethyl)phenyl]carbamoyl}-7-(propan-2-ylidene)bicyclo [2.2.1]heptan-2-yl]-3,6-dimethoxy-pyridazine-4-carboxamide] |
| 21 nM | COc1ncc(C2=NOC3CC(C(N)=O)CC23)cc1C(=O)N[C@H]1[C@@H](C(=O)Nc2ccc(F)c(C(F)(F)F)c2)[C@H]2CC[C@@H]1/C2=C\C1CC1 (single isomer, unassigned) [Example 65] |
| 2.5 nM | COc1ncc(-c2cc([C@H](OC(=O)NC3CCOCC3)C(F)(F)F)ccc2F)cc1C(=O)N[C@@H]1C2CCC(/C2=C/C2CC2)[C@@H]1C(=O)Nc1ccc(F)c(C(F)(F)F)c1 (stereo partly drawn) [Example 185, (1S)-1-[3-(5-{[(2R,3S,7Z)-7-(cyclopropyl-methylidene)-3-{[4-fluoro-3-(trifluoromethyl)phenyl]carbamoyl}bicyclo[2.2.1]heptan-2-yl]carbamoyl}-6-methoxypyridin-3-yl)-4-fluorophenyl]-2,2,2-trifluoroethyl N-(oxan-4-yl)carbamate] |
| 3.1 nM | COc1ncc(C2=NOC3CC(CO)CC23)cc1C(=O)N[C@H]1[C@@H](C(=O)Nc2ccc(F)c(C(F)(F)F)c2)[C@H]2CC[C@@H]1/C2=C\c1cscn1 (stereo partly drawn) [Example 97, N-((1R,2R,3S,4R,Z)-3-((4-fluoro-3-(trifluoromethyl)phenyl)carbamoyl)-7-(thiazol-4-ylmethylene)bicyclo [2.2.1]heptan-2-yl)-5-(5-(hydroxymethyl)-3a,5,6,6a-tetrahydro-4H-cyclopenta[d]isoxazol-3-yl)-2-methoxy-nicotinamide] |
| 3.2 nM | COc1ncc(C2=NO[C@H]3C[C@H](C#N)CN23)cc1C(=O)N[C@@H]1C2CCC(/C2=C/C2CC2)[C@@H]1C(=O)Nc1ccc(F)c(C(F)(F)F)c1 (stereo partly drawn) [Example 134, 5-((6S,7aS)-6-cyano-5,6,7,7a-tetrahydropyrrolo [1,2-d][1,2,4]oxadiazo 1-3-yl)-N-((1R,2R,3S,4R,Z)-7-(cyclopropyl-methylene)-3-((4-fluoro-3-(trifluoromethyl)phenyl)carbamoyl)bicyclo[2.2.1]heptan-2-yl)-2-methoxynicotinamide] |
| 2 nM | CC1(C)Cc2cc(C3=NOC4CC(CO)CC34)cc(C(=O)N[C@@H]3C4CCC(/C4=C/C4CC4)[C@@H]3C(=O)Nc3ccc(F)c(C(F)(F)F)c3)c2O1 (some centres unmarked) [Example 144] |
| 1300 nM | CCCc1cnc(OC)c(C(=O)N[C@@H]2C3CCC(/C3=C/C(F)(F)F)[C@@H]2C(=O)Nc2ccc(F)c(C(F)(F)F)c2)c1 (stereo partly drawn) [Example 51, N-[(2R,3S,7Z)-3-{[4-fluoro-3-(trifluoromethyl)phenyl]carbamoyl}-7-(2,2,2-trifluoroethylidene)bicyclo[2.2.1]heptan-2-yl]-2-methoxy-5-propylpyridine-3-carboxamide] |
